Experimental data from patent US20190328687A1, “Antibacterial Compounds” (priority 2014, published 2019).
Read-outs that look alike come from different tables or passages of the source. Peptide text beside a SMILES is read from it. * marks the point of attachment. βNA = c1ccc2cc(N*)ccc2c1

What was measured:
Salmonella typhimurium = conditions: cited from earlier work
E. coli 7KOΔtolC = experiment: Cell sensitivity assay (growth, OD600)
Procedure: (§1) Overnight cultures of E. coli 7KO or 7KOΔtolC strains are used to inoculate fresh aliquots of LB media which are then incubated at 30° C., 200 rpm for 2.5 h. 40 μL aliquots of each culture are subsequently added to 40 μL of LB media containing 2× the desired final niclosamide concentration (i.e., resulting in a final 2-fold dilution series from 5 μM down to 20 nM) or a 0 μM control in a 384-well microplate. The plate is incubated at 30° C., 200 rpm for 4 h. Culture turbidity is monitored by optical density at 600 nm in order to calculate percentage growth relative to the 0 μM control for each strain. Data are the mean of at least two independent experiments±SEM.
Overnight cultures of E. coli 7KOΔtolC are used to inoculate fresh aliquots of LB media which are incubated at 30° C., 200 rpm for 2.5 h. […] Culture turbidity is monitored by optical density at 600 nm in order to calculate percentage growth relative to the 0 μM control for each strain. […]
This procedure applies to all experiments yielding growth curves for Gram negative bacterial strains generated in the presence of niclosamide or 2-chloro-4-nitroaniline, unless noted otherwise below or in the individual Figure Descriptions. […] Culture turbidity is monitored by optical density at 600 nm (OD600) 4 h post-challenge. […]

[1] = tested on: efflux pumps over-expressed in P. aeruginosa; conditions: growth inhibition in presence of levofloxacin; cited from earlier work
AcrAB-TolC = AcrAB-TolC (Escherichia coli, UniProt P02930+P31224); conditions: cited from earlier work
[2] = tested on: methicillin resistant Staphylococcus aureus (MRSA; ATCC43300); experiment: Heatmap growth inhibition assay, MRSA; conditions: single agent
E. coli 7KO = experiment: Cell sensitivity assay (growth, OD600)
Procedure: as §1
Overnight cultures of E. coli 7KO are used to inoculate fresh aliquots of LB media which are then incubated at 30° C., 200 rpm for 2.5 h. 40 μL aliquots of each culture are subsequently added to 40 μL of LB media containing 2× the desired final niclosamide concentration (i.e., resulting in a final 2-fold dilution series from 10 μM down to 160 nM) or a 0 μM control, as well as either 0 μM, 25 μM or 50 μM PaβN in a 384-well microplate. An overnight culture of 7KOΔtolC is treated in the same manner, but without addition of PaβN. […] Culture turbidity is monitored by optical density at 600 nm in order to calculate percentage growth relative to the 0 μM niclosamide control for each series. […]

M. tuberculosis = conditions: cited from earlier work
pyruvate oxidoreductases = conditions: cited from earlier work
E. coli 7KOΔtolC (DE3) = experiment: 7KOΔtolC(DE3) cell sensitivity assay
Procedure: Overnight cultures of E. coli 7KOΔtolC (DE3) strains overexpressing either E. coli NfsA (NfsA_Ec), E. coli NfsB (NfsB_Ec) or containing a plasmid only (pET28) control are used to inoculate fresh aliquots of assay media (LB media supplemented with 50 μg·mL^−1 kanamycin and 50 μM IPTG) which are incubated at 30° C., 200 rpm for 2.5 h. 40 μL aliquots of each culture are then added to 40 μL aliquots of assay media containing 2× the desired final concentration of nitazoxanide (i.e., resulting in a final 2-fold dilution series from 20 down to 2.5 μM) or a 0 μM media only control. The plate is then incubated at 30° C., 200 rpm for 4 h. Culture turbidity is monitored by optical density at 600 nm in order to calculate percentage growth relative to the 0 μM control for each strain. Data are the mean of at least two independent experiments±SEM.
Individual wells of a 96-well microtitre plate containing 100 μL LB supplemented with 50 μg mL^−1 are inoculated in duplicate with 7KOΔtolC(DE3) strains overexpressing E. coli nfsA, E. coli nfsB or a pET28 empty plasmid control. Strains are incubated overnight at 30° C. in a Heidolph titramax platform shaker at 900 rpm. 30 μL of each overnight culture is used to inoculate duplicate cultures of 600 μL LB supplemented with 50 μg mL^−1 kanamycin and 50 μM IPTG in a 96 well deep culture plate (Axygen). Cultures are incubated at 30° C., 1200 rpm for 2.5 h. 40 μL aliquots from each culture are then added to individual wells of a sterile 384 well plate, containing 40 μL LB medium supplemented with 100 μg mL^−1 kanamycin, 50 μM IPTG and serial dilutions of nitazoxanide, including 0 μM controls. Each nitroreductase over-expression strain is tested in duplicate (independent replicates). Culture turbidity is monitored by optical density at 600 nm 4 h post-challenge. Percentage growth values are calculated by comparison of the nitazoxanide-challenged cells with the unchallenged control, after subtracting the initial absorbance values (t=0 h). Microtitre plate absorbance readings are measured using an Eon Biotek Reader (BioTek Instruments Inc.).

[3] = tested on: Staphylococcus aureus ATCC 43300 (MRSA); experiment: Growth inhibition of Gram positive bacteria: IC50 measurements; conditions: ATCC43300|MRSA, 4 h, read-out: IC50 against Staphylococcus aureus ATCC 43300 (MRSA)
Procedure: (§2) Data are the mean of two independent replicates (using duplicate technical replicates for each independent experiment) and error bars indicate standard error of the mean.
(§3) Data are the mean of two technical replicates.
(§4) 15 mL tubes containing 2 mL tryptic soy broth (TSB) were inoculated with the Gram positive bacterial strains Staphylococcus aureus ATCC 43300 (MRSA), Bacillus thuringiensis P.1.IPS-80 serovar israelensis, or Listeria welshimeri ATCC 35897. Strains were incubated overnight at 37° C. with shaking at 200 rpm. The following day, the overnight cultures were diluted in fresh TSB to give an OD600 of approximately 0.3. Duplicate 40 μL aliquots of this were then added to individual wells of a sterile 384 well plate, containing 40 μL TSB medium supplemented with serial dilutions of 2× niclosamide or nitazoxanide, including 0 μM controls. Culture turbidity was monitored by optical density at 600 nm at 4 h post-challenge. Percentage growth inhibition values were calculated by comparison of the niclosamide- or nitazoxanide-challenged cells with the unchallenged control for each strain, after subtracting the initial absorbance values (t=0 h). […]

[4] = tested on: Listeria welshimeri ATCC 35897; experiment: as above; conditions: ATCC35897, 4 h, read-out: IC50 against Listeria welshimeri ATCC 35897
Procedure: as §2, §3, §4

[5] = tested on: E. coli 7KOΔtolC strains over-expressing nitroreductase candidates from plasmid pUCX; experiment: Cell sensitivity assay, nitroreductase over-expressing strains; assay type: cell-based; conditions: for IC50: Escherichia coli
E. coli 6KO = experiment: Toxicity to E. coli host strain; assay type: cell-based; conditions: even if not over-expressing an active nitroreductase
Excerpt: Without wishing to be bound by theory, the applicants hypothesise that a key difference between the niclosamide-sensitive SOS-R2 and niclosamide-resistant 6KO strains is that the former carry a deletion of the tolC gene, which encodes an efflux pump capable of exporting numerous xenobiotic and other compounds directly across both cell membranes of Gram negative bacterial cells.

[6] = tested on: Mycobacterium tuberculosis; conditions: cited from earlier work
[7] = tested on: quorum sensing system in Pseudomonas aeruginosa; conditions: among FDA-approved drugs tested; cited from earlier work
[8] = Heatmap growth inhibition assay, drug-resistant clinical isolates; conditions: read-out: IC50 against clinical isolates

Chain of AcrAB-TolC (P31224 whole entry): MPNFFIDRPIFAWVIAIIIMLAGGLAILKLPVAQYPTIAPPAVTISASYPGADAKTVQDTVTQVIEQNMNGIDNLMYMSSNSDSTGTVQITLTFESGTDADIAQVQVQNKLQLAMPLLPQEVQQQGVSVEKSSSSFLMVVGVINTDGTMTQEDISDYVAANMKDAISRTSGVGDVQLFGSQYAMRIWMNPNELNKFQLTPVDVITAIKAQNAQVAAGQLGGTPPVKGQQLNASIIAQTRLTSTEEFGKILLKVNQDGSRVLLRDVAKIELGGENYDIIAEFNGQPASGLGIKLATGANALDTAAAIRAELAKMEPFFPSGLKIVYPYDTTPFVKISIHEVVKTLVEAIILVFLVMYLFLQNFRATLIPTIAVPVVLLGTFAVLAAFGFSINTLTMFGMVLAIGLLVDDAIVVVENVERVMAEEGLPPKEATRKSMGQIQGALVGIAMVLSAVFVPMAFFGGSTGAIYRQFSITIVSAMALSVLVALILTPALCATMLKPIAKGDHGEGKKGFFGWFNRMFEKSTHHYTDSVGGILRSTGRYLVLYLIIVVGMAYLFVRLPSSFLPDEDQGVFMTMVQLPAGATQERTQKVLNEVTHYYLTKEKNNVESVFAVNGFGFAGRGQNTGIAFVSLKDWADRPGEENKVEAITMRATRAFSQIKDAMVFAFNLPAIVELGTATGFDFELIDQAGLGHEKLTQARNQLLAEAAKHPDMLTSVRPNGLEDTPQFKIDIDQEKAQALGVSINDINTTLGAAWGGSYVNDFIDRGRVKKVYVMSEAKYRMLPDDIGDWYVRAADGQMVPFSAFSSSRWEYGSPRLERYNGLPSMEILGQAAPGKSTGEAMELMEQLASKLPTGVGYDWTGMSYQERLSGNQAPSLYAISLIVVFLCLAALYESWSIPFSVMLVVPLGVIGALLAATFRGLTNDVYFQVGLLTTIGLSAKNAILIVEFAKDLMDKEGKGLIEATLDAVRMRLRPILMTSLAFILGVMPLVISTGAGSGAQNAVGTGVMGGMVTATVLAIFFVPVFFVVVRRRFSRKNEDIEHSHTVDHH
Chain of AcrAB-TolC (P02930 23-493): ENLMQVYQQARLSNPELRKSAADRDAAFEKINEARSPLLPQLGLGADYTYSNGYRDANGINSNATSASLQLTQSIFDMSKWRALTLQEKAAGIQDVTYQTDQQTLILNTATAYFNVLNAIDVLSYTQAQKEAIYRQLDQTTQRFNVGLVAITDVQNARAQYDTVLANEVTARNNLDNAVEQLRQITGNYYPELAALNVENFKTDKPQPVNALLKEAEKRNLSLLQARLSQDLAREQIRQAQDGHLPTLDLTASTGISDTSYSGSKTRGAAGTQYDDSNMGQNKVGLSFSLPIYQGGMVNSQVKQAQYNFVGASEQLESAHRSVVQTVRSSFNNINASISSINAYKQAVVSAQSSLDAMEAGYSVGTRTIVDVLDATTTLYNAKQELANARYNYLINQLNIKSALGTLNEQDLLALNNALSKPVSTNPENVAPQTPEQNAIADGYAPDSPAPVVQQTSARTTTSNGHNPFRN
Chain of AcrAB-TolC (P0AE06 25-397, further chain): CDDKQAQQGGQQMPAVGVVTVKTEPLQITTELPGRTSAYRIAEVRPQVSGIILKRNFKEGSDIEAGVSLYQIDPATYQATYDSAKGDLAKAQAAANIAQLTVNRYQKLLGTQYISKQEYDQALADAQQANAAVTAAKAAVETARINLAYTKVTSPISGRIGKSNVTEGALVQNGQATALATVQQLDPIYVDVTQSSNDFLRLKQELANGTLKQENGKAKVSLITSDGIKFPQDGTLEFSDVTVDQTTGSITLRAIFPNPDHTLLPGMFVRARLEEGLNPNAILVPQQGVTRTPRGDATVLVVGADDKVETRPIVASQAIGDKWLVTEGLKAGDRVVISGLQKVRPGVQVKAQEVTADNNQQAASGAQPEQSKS

SMILES: Nc1ccc([N+](=O)[O-])cc1Cl [2-chloro-4-nitroaniline]
- Mutagenicity (Salmonella typhimurium): mutagenic product
- Toxicity relative to niclosamide (E. coli 7KOΔtolC; growth inhibition of 7KOΔtolC, FIG. 15): at least three orders of magnitude less toxic than niclosamide

SMILES: O=C(O)c1cc(Cl)ccc1O [5-chlorosalicyclic acid]
- Mutagenicity (Salmonella typhimurium): non-mutagenic

SMILES: N=C(N)NCCC[C@H](NC(=O)[C@@H](N)Cc1ccccc1)C(=O)Nc1ccc2ccccc2c1 [PAβN, phenylalanine-arginine β-napthylamide] (H-Phe-Arg-βNA)
- Activity against P. aeruginosa efflux pumps [1]: active against each of the efflux pumps
- Activity against AcrAB-TolC (AcrAB-TolC): active against AcrAB-TolC
- Sensitivity of MRSA (concentration level) [2]: micromolar levels
- Effect of PAβN on niclosamide sensitivity (E. coli 7KO; 25 μM or 50 μM PAβN, niclosamide 10 μM down to 156 nM): promote niclosamide sensitivity in the 7KO strain in a dose-dependent manner

SMILES: CC(=O)Oc1ccccc1C(=O)Nc1ncc([N+](=O)[O-])s1 [Nitazoxanide, 2-acetyloxy-N-(5-nitro 2-thiazolyl)benzamide]
- Effect on membrane potential (M. tuberculosis): disrupts membrane potential and pH homeostasis
- Effect on membrane potential (M. tuberculosis; listed as nitazoxanide): uncoupled the membrane potential
- Inhibition of pyruvate oxidoreductases (pyruvate oxidoreductases): inhibits pyruvate oxidoreductases
- Toxicity relative to niclosamide (less toxic) (E. coli 7KOΔtolC (DE3); 7KOΔtolC (DE3) cells): approximately 2 orders of magnitude
- Effect of NfsA and NfsB over-expression on toxicity (E. coli 7KOΔtolC (DE3); 7KOΔtolC (DE3), pET28 NfsA or NfsB): able to defend against nitazoxanide toxicity
- IC50 (E. coli 7KOΔtolC (DE3); Escherichia coli, 4 h, read-out: IC50 in 7KOΔtolC (DE3) cells): 5200 nM
- IC50 [3]: 2900 nM
- IC50 [4]: 8780 nM

SMILES: O=C(Nc1ccc([N+](=O)[O-])cc1Cl)c1cc(Cl)ccc1O [Niclosamide, N-(2′-chloro-4′-nitrophenyl)-5-chlorosalicylamide]
- IC50, strains over-expressing NfsA, NfsB and AzoR ([5]; 7KOΔtolC, pUCX NfsA, NfsB or AzoR): low micromolar
- IC50 ([5]; read-out: IC50, MdaB over-expressing strain): 83 nM
- IC50 ([5]; read-out: IC50, NemA over-expressing strain): 300 nM
- IC50 ([5]; read-out: IC50, empty plasmid control strain): 47 nM
- Toxicity to 6KO strain (E. coli 6KO): no longer found to be toxic
- MIC [6]: 0.5 to 1 µg/mL
- Activity against non-replicating M. tuberculosis ([6]; grown in low oxygen conditions): active
- Effect on membrane potential (M. tuberculosis): uncoupled the membrane potential
- Anti-quorum sensing activity [7]: highest anti-quorum sensing activity
- Sensitivity of MRSA (concentration level) [2]: nanomolar concentrations
- IC50 (E. coli 7KOΔtolC; Escherichia coli, 4 h, read-out: IC50 for 7KOΔtolC): 120 nM
- IC50 (E. coli 7KO; Escherichia coli, 7KO, 4 h, read-out: IC50 for 7KO): > 5000 nM
- IC50 [3]: 132 nM
- IC50 [4]: 284 nM
- IC50 [8]: > 20000 nM
